Values of other authors, collected in patent US7417165B2, “Crystalline forms of pregabalin” (Teva Pharmaceutical Industries Ltd., priority 2005, dated 2008).

Assays:
[1] = tested on: GAD (L-glutamic acid decarboxylase); conditions: background statement, no data
[2] = tested on: seizure; conditions: background statement, no data

CC(C)C[C@H](CN)CC(=O)O [(S)-Pregabalin, (S)-(+)-3-(aminomethyl)-5-methylhexanoic acid]
activation of GAD (L-glutamic acid decarboxylase) [1]: activate
protective effect on seizure [2]: dose dependent protective effect
